The numbers were not newly measured in PMC4506092, “Utilizing Chemical Genomics to Identify Cytochrome b as a Novel Drug Target for Chagas Disease” (PLoS Pathogens, 2015), which cites them from elsewhere.

This data set relates to T. cruzi infection. Particulars: cited from earlier work; for Parasitological cure rates: Chagas disease patients, clinical testing.

Turning to `C[C@@H](c1nc(-c2ccc(C#N)cc2)cs1)[C@@](Cn1cncn1)(OCOP(=O)(O)O)c1ccc(F)cc1F` [Compound E1224], the Parasitological cure rates is reported as 20–30%. Besides, the “Patients with failure to cure infection” value (treated Chagas patients) is reported as ~ 70%.
With `CC[C@@H]([C@H](C)O)n1ncn(-c2ccc(N3CCN(c4ccc(OC[C@@H]5CO[C@@](Cn6cncn6)(c6ccc(F)cc6F)C5)cc4)CC3)cc2)c1=O` [posaconazole], the Parasitological cure rates is on record as 20–30%. Further, for the setting “Chagas patients, 60-day treatment, determined by PCR”, the “Patients with recrudescence of infection” value is on record as 81%.
